Literature values as cited in patent US5665760A, “Lyophilized thioxanthenone antitumor agents” (priority 1995, dated 1997).

Conditions: excipient alone; cited from earlier work

OC[C@H]1O[C@@](CO)(O[C@H]2O[C@H](CO)[C@@H](O)[C@H](O)[C@H]2O)[C@@H](O)[C@@H]1O [sucrose]
glass transition temperature of excipient: -32 °C
